The test system of one experiment is HL60 cells. The experiment is described as follows: HL60 cell proliferation assay (CellTiter-Glo). It counts as cell-based. As to conditions: Homo sapiens, HL-60, 72 h, CellTiter-Glo viability, read-out: Cell Line (IC50, nM) HL60. The protocol: (§1) K562 and HL60 cells, cultured in Iscove's Modified Dulbecco's Media (IMDM) supplemented with 10% FBS, were harvested at 50-80% confluency and plated at 2,000 cells per well (K562) or 1,500 cells per well (HL60) in 384-well tissue culture plates. A subset of wells contained media only (low control, LC). Compounds were serially diluted in DMSO. 40 nL of compound or DMSO only (high control, HC) were added to each well using an Echo 550 liquid handler (Labcyte). The plates were placed in a 37° C. incubator with 5% CO2 for 72 hours. Cell viability was measured using a CellTiter-Glo luminescent cell viability assay (Promega), which allows for relative quantification of metabolically active cells by luminescence-based measurements of intracellular ATP concentrations. Briefly, plates were removed from the incubator and equilibrated for 15 minutes at room temperature prior to the addition of 40 μL of CellTiter-Glo reagent. Plates were then incubated for 30 minutes at room temperature. Luminescence was measured using an EnSpire plate reader (Perkin Elmer). As noted above, luminescence values from wells with DMSO only or media without cells were used as high and low controls (HC and LC), respectively. Normalized percent viability was calculated as follows: percent viability=100×(Lumsample−LumLC)/(LumHC−LumLC).
(In general: ATP-based viability assays read luminescence as a measure of living cells.)

The target in another experiment is ABL1 (T315I) (Homo sapiens, UniProt P00519, T315I). The experiment in a line: Luminescence-based ABL kinase assay (ADP-Glo, 300 μM ATP), T315I mutant. It counts as biochemical. The method, boiled down: (§2)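 Buffer: 50 mM HEPES pH 7.5, 10 mM MgCl2, 1 mM EGTA, 2 mM DTT, 0.05% BSA. Compound preincubated 30 min at RT with kinase (3.325 nM in enzyme solution), then started with a Peptide 2 (6 μM) and ATP (1.2 mM) solution, both stock levels; 90 min at RT.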
On the technique in general: ADP-Glo first removes unused ATP, then detects ADP through luciferase.

A further experiment has as its target T1, ABL1 (Homo sapiens, UniProt P00519).
T1 construct: purchased Carna Biosciences
The experiment in a line: Luminescence-based ABL kinase assay (ADP-Glo, 300 μM ATP). The class given is biochemical. The method, boiled down: as §2

A further experiment concerns K562 cells. The experiment is described as follows: K562 cell proliferation assay (CellTiter-Glo). It counts as cell-based. The following applies: Homo sapiens, K562, 72 h, CellTiter-Glo viability, read-out: Cell Line (IC50, nM) K562. On the procedure: as §1

The term IC50 denotes the point on the concentration scale where inhibition reaches its midpoint.

Where only a bound is given, the exact number is not on record here.

As for `COc1ccccc1-c1c[nH]c2nc(NC(=O)[C@H]3C[C@H]3CO)ccc12` [Compound 91, (1S,2R)-2-(hydroxymethyl)-N-[3-(2-methoxyphenyl)-1H-pyrrolo[2,3-b]pyridin-6-yl]cyclopropane-1-carboxamide], the IC50 in the experiment with HL60 cells is above 10000 nM; against ABL1 (T315I), 24.6 nM; on ABL1, 166 nM; in the experiment on K562 cells, 1080 nM.
For `O=C(Nc1ccc2c(-c3ccccc3Cl)c[nH]c2n1)C1CC1` [Compound 6, N-[3-(2-chlorophenyl)-1H-pyrrolo[2,3-b]pyridin-6-yl]cyclopropanecarboxamide], the IC50 with HL60 cells is above 10000 nM; against ABL1 (T315I), 65.6 nM; against ABL1, 123 nM; in the experiment with K562 cells, 452 nM.
Consider `CCOc1cccc(F)c1-c1n[nH]c2nc(NC(=O)[C@@H]3C[C@@H]3F)ccc12` [Compound 67, (1S,2S)—N-(3-(2-ethoxy-6-fluorophenyl)-1H-pyrazolo[3,4-b]pyridin-6-yl)-2-fluorocyclopropane-1-carboxamide], for which the IC50 with HL60 cells was above 10000 nM; at ABL1 (T315I), 37.7 nM; on ABL1, 157 nM; with K562 cells, 1140 nM.
In the same order, the values of `Cc1ccccc1-c1c[nH]c2nc(NC(=O)C3CC3)ccc12` [Compound 4, N-[3-(2-methylphenyl)-1H-pyrrolo[2,3-b]pyridin-6-yl]cyclopropanecarboxamide] are above 10000 nM, 32.3 nM, 113 nM and 223 nM.
In the same order, the values of `COc1c(-c2c[nH]c3nc(NC(=O)[C@@H]4C[C@@H]4F)ccc23)ccc2cn[nH]c12` [Compound 81, (1S,2S)-2-fluoro-N-(3-(7-methoxy-1H-indazol-6-yl)-1H-pyrrolo[2,3-b]pyridin-6-yl)cyclopropane-1-carboxamide] are above 10000 nM, 12.9 nM, 12.2 nM and 96.2 nM.
`COc1ncnc(OC)c1-c1c[nH]c2nc(NC(=O)[C@@H]3C[C@@H]3F)ccc12` [Compound 102, (1S,2S)—N-[3-(4,6-dimethoxypyrimidin-5-yl)-1H-pyrrolo[2,3-b]pyridin-6-yl]-2-fluorocyclopropane-1-carboxamide]: the IC50 was above 10000 nM in the experiment with HL60 cells, 17.8 nM against ABL1 (T315I), 12.5 nM against ABL1 and 48 nM with K562 cells.
On to `COc1cccc(OC)c1-c1c[nH]c2nc(NC(=O)NCCN(C)C)ccc12` [Compound 132, 1-[3-(2,6-dimethoxyphenyl)-1H-pyrrolo[2,3-b]pyridin-6-yl]-3-[2-(dimethylamino)ethyl]urea], for which the half-maximal inhibitory concentration (IC50) in the experiment on HL60 cells is above 10000 nM; at ABL1 (T315I), 97.5 nM; at ABL1, 143 nM; in the experiment with K562 cells, 234 nM.
In the same order, the values of `COc1ncccc1-c1c[nH]c2nc(NC(=O)C3CC3)ccc12` [Compound 14, N-[3-(2-methoxypyridin-3-yl)-1H-pyrrolo[2,3-b]pyridin-6-yl]cyclopropanecarboxamide] are above 10000 nM, 52.8 nM, 91.2 nM and 416 nM.
Take `COc1ncc(F)cc1-c1c[nH]c2nc(NC(=O)[C@@H]3C[C@@H]3F)ccc12` [Compound 92, (1S,2S)-2-fluoro-N-[3-(5-fluoro-2-methoxypyridin-3-yl)-1H-pyrrolo[2,3-b]pyridin-6-yl]cyclopropane-1-carboxamide]: the IC50 in the experiment with HL60 cells was above 10000 nM; at ABL1 (T315I) it was 27.3 nM; against ABL1 it was 39.4 nM; in the experiment with K562 cells, 248 nM.
For `COc1ccccc1-c1c[nH]c2nc(NC(=O)[C@H]3C[C@H]3C#N)ccc12` (relative stereo) [Compound 106, cis-2-cyano-N-[3-(2-methoxyphenyl)-1H-pyrrolo[2,3-b]pyridin-6-yl]cyclopropane-1-carboxamide], the IC50 is above 10000 nM with HL60 cells, 26.1 nM against ABL1 (T315I), 78.1 nM against ABL1 and 275 nM with K562 cells.
`COc1ccccc1-c1c[nH]c2nc(NC(=O)[C@H]3C[C@H]3F)ccc12` [Compound 2, (1R,2R)-2-fluoro-N-(3-(2-methoxyphenyl)-1H-pyrrolo[2,3-b]pyridin-6-yl)cyclopropane-1-carboxamide]: the IC50 with HL60 cells is above 10000 nM; against ABL1 (T315I), 9.96 nM; at ABL1, 22.2 nM; in the experiment with K562 cells, 176 nM.
In the same order, the values of `COc1ccnc(OC)c1-c1c[nH]c2nc(NC(=O)NCCN3CCNCC3)ccc12` [Compound 137, 3-[3-(2,4-dimethoxypyridin-3-yl)-1H-pyrrolo[2,3-b]pyridin-6-yl]-1-[2-(piperazin-1-yl)ethyl]urea] are above 10000 nM, 40.6 nM, 36 nM and 733 nM.
In the same order, the values of `O=C(Nc1ccc2c(-c3cccc(O)c3)c[nH]c2n1)C1CC1` [Compound 13, N-[3-(3-hydroxyphenyl)-1H-pyrrolo[2,3-b]pyridin-6-yl]cyclopropanecarboxamide] are 4450 nM, 9.74 nM, 96.6 nM and 202 nM.
For the compound `COc1ncnc(OC2CC2)c1-c1c[nH]c2nc(NC(=O)[C@@H]3C[C@@H]3F)ccc12` [Compound 153, (1S,2S)—N-[3-(4-cyclopropoxy-6-methoxypyrimidin-5-yl)-1H-pyrrolo[2,3-b]pyridin-6-yl]-2-fluorocyclopropane-1-carboxamide], the IC50 with HL60 cells was above 10000 nM; against ABL1 (T315I) it was 1.37 nM; against ABL1 it was 4.65 nM; with K562 cells, 8.67 nM.
As for `COc1cc2ncnn2cc1-c1c[nH]c2nc(NC(=O)[C@@H]3C[C@@H]3F)ccc12` [Compound 111, (1S,2S)-2-fluoro-N-(3-(7-methoxy-[1,2,4]triazolo[1,5-a]pyridin-6-yl)-1H-pyrrolo[2,3-b]pyridin-6-yl)cyclopropane-1-carboxamide], the IC50 with HL60 cells was above 10000 nM; at ABL1 (T315I), 151 nM; against ABL1, 14.3 nM; in the experiment on K562 cells, 321 nM.
In the same order, the values of `COc1ccccc1-c1c[nH]c2nc(NC(=O)[C@@H]3C[C@@H]3CN3CCN(C)CC3)ccc12` (racemic) [Compound 41, cis-N-[3-(2-methoxyphenyl)-1H-pyrrolo[2,3-b]pyridin-6-yl]-2-[(4-methylpiperazin-1-yl)methyl]cyclopropane-1-carboxamide] are above 10000 nM, 26.8 nM, 106 nM and 654 nM.
In the same order, the values of `COc1cccc(OC)c1-c1n[nH]c2nc(NC(=O)[C@@H]3C[C@@H]3F)ccc12` [Compound 78, (1S,2S)—N-(3-(2,6-dimethoxyphenyl)-1H-pyrazolo[3,4-b]pyridin-6-yl)-2-fluorocyclopropane-1-carboxamide] are above 10000 nM, 139 nM, 17.8 nM and 94.8 nM.
In the same order, the values of `CNc1ncccc1-c1c[nH]c2nc(NC(=O)C3CC3)ccc12` [Compound 37, N-[3-[2-(methylamino)pyridin-3-yl]-1H-pyrrolo[2,3-b]pyridin-6-yl]cyclopropanecarboxamide] are above 10000 nM, 103 nM, 46.1 nM and 231 nM.

These data come from patent US20240043420A1, “7-AZAINDOLE COMPOUNDS FOR INHIBITION OF BCR-ABL TYROSINE KINASES” (EnLiven Therapeutics, Inc., priority 2020, published 2024).
